In US9018388B2, “Pesticidal compositions and processes related thereto” (Dow AgroSciences LLC, priority 2012, dated 2015):

Experiments:
[1] = system: Beet Armyworm (BAW) (Spodoptera exigua); test: Bioassay on beet armyworm (BAW), 128-well diet tray assay; type: in vivo; conditions: Spodoptera exigua; Beet armyworm, 50 μg/cm^2; read-out: % Mortality BAW 50 μg/cm^2
In short: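 Second-instar Spodoptera exigua larvae, one to five per well, on artificial diet treated with 50 μg/cm^2 compound in 90:10 acetone-water and dried, eight wells per compound. Held at 25 °C, 14:10 light-dark for five to seven days; percent mortality averaged over wells.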

[2] = system: Corn Earworm (CEW) (Helicoverpa zea); test: Bioassay on corn earworm (CEW), 128-well diet tray assay; type: in vivo; conditions: Helicoverpa zea; Corn earworm, 50 μg/cm^2; read-out: % Mortality CEW 50 μg/cm^2
In short: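 Second-instar Helicoverpa zea larvae (one to five per well) placed on artificial diet treated with 50 μg/cm^2 compound in 90:10 acetone-water, dried, eight wells per compound. Held at 25 °C, 14:10 light-dark, five to seven days; percent mortality averaged over wells.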

[3] = system: Green Peach Aphid (GPA) (Myzus persicae); test: Bioassay on green peach aphid (GPA), foliar spray on cabbage seedlings; type: in vivo; conditions: 72 h, read-out: % Mortality GPA 200 ppm

Structure (SMILES): CC(C)c1ccccc1NC(=S)N/N=C/c1ccc(-c2ncn(-c3ccc(OC(F)(F)C(F)(F)F)cc3)n2)cc1 [Compound I-33]
- melting point: 214 to 216 °C

Structure (SMILES): CC(C)c1c(F)cccc1NC(=S)NN [Compound I-51]
- melting point: 158 to 160 °C

Structure (SMILES): CC(C)c1cc(F)ccc1NC(=S)NN [Compound I-47]
- melting point: 163 to 217 °C

Structure (SMILES): CC(F)(F)c1ccc(-n2cnc(-c3ccc(C=O)cc3)n2)cc1 [Compound I-62]
- melting point: 139 to 141 °C

Structure (SMILES): CC(C)c1ccc(F)cc1NC(=S)NN [Compound I-43]
- melting point: 133 to 135 °C

Structure (SMILES): CC(C)c1ccccc1NC(=S)N/N=C/c1ccc(-c2ncn(-c3ccc4c(c3)OC(F)(F)O4)n2)cc1 [Compound I-36]
- melting point: 200 °C (dec.)

Structure (SMILES): Cc1cccc(C)c1/N=C(/N/N=C/c1ccc(-c2ncn(-c3ccc(OC(F)(F)F)cc3)n2)cc1)SCc1ccc(S(N)(=O)=O)cc1 [Compound 13C]
- pest or weed control at 50 µg/cm2, 50 µg/cm2 [1]: 50 to 100%
- pest or weed control at 50 µg/cm2, 50 µg/cm2 [2]: 50 to 100%
- pest or weed control at 200 ppm [3]: 0 to 80%

Structure (SMILES): COc1cc(C)c(/N=C(/N/N=C/c2ccc(-c3ncn(-c4ccc(OC(F)(F)F)cc4)n3)cc2)SCOC(=O)CNC(=O)OCc2ccccc2)c(C)c1 [Compound 28C]
- pest or weed control at 50 µg/cm2, 50 µg/cm2 [1]: 50 to 100%
- pest or weed control at 50 µg/cm2, 50 µg/cm2 [2]: 50 to 100%
- pest or weed control at 200 ppm [3]: 0 to 80%

Structure (SMILES): FC(F)(F)Oc1ccc(-n2cnc(-c3ccc(/C=N/N=C4\SCCCN4c4c(Cl)cccc4C(F)(F)F)cc3)n2)cc1 [Compound 190C]
- pest or weed control at 50 µg/cm2, 50 µg/cm2 [1]: 50 to 100%
- pest or weed control at 50 µg/cm2, 50 µg/cm2 [2]: 50 to 100%
- pest or weed control at 200 ppm [3]: 0 to 80%

Structure (SMILES): CCOCC(=O)OCS/C(=N\c1c(C)cccc1C)N/N=C/c1ccc(-c2ncn(-c3ccc(OC(F)(F)F)cc3)n2)cc1 [Compound 22C]
- pest or weed control at 50 µg/cm2, 50 µg/cm2 [1]: 50 to 100%
- pest or weed control at 50 µg/cm2, 50 µg/cm2 [2]: 50 to 100%
- pest or weed control at 200 ppm [3]: 0 to 80%

Structure (SMILES): Cc1cccc(Cl)c1-n1c(C)cs/c1=N\N=C\c1ccc(-c2ncn(-c3ccc(OC(F)(F)F)cc3)n2)cc1 [Compound 174C]
- pest or weed control at 50 µg/cm2, 50 µg/cm2 [1]: 50 to 100%
- pest or weed control at 50 µg/cm2, 50 µg/cm2 [2]: 50 to 100%
- pest or weed control at 200 ppm [3]: 0 to 80%

Structure (SMILES): Cc1cccc(C)c1/N=C(/N/N=C/c1ccc(-c2ncn(-c3ccc(OC(F)(F)F)cc3)n2)cc1)SCC(=O)NC[C@@H]1CCCNC1 [Compound 62C, (1Z,2E)-2-oxo-2-(((R)-piperidin-3-ylmethyl)amino)ethyl N-(2,6-dimethylphenyl)-2-(4-(1-(4-(trifluoromethoxy)phenyl)-1H-1,2,4-triazol-3-yl)benzylidene)hydrazinecarbimidothioate trifluoroacetic acid]
- pest or weed control at 50 µg/cm2, 50 µg/cm2 [1]: 50 to 100%
- pest or weed control at 50 µg/cm2, 50 µg/cm2 [2]: 50 to 100%
- pest or weed control at 200 ppm [3]: 0 to 80%

Structure (SMILES): COc1cc(C)c(N2CCS/C2=N\N=C\c2ccc(-c3ncn(-c4ccc(OC(F)(F)F)cc4)n3)cc2)c(C)c1 [Compound 138C]
- pest or weed control at 50 µg/cm2, 50 µg/cm2 [1]: 50 to 100%
- pest or weed control at 50 µg/cm2, 50 µg/cm2 [2]: 50 to 100%
- pest or weed control at 200 ppm [3]: 0 to 80%
